Activity calls are given as the source filed them. The calls are words filed in the database; no cut-off is given here.
Columns and labels:
Egl nine homolog 1 = Egl nine homolog 1 (Homo sapiens, UniProt Q9GZT9); assay: Binding affinity to […] PHD2 (181 to 426 residues) (unknown origin) by fluorescence polarization assay
[1] = Metabolic stability in rat liver microsomes assessed as clearance at 1 uM preincubated for 5 mins followed by NADPH addition and measured upto 60 mins by LC-MS/MS analysis; format: ADME, Microsome; details: time < 65 min, read-out: CLH
Mus musculus = assay: Upregulation of reticulocytes in C57BL/6J mouse at 10 mg/kg, po administered once daily for 3 days; format: functional, organism-based; details: time 3.0 day
[2] = AUC(0 to t) in Sprague-Dawley rat at 1 mg/kg, iv measured upto 24 hrs by LC-MS/MS analysis; format: ADME, organism-based; set-up: dose 1 mg/kg, time < 24 hrs, route iv; details: in vivo
[3] = molecular target: Endothelial PAS domain-containing protein 1 (Homo sapiens) (UniProt Q99814); assay: Induction of HIF-2alpha stabilization in human Hep3B cells at 20 to 50 uM by Western blotting analysis; format: cell-based; details: dose 20-50 µM
[4] = Toxicity in ICR mouse assessed as change in spleen to body weight ratio at 50 to 200 mg/kg, po administered every other day for 14 days; format: organism-based; details: in vivo, 336 h, dose 50-200 mg/kg, time 14 day
[5] = Toxicity in ICR mouse assessed as heart damage at 50 to 200 mg/kg, po administered every other day for 14 days; format: organism-based; details: in vivo, 336 h, dose 50-200 mg/kg, time 14 day
[6] = Clearance in Sprague-Dawley rat at 1 mg/kg, iv measured upto 24 hrs by LC-MS/MS analysis; format: ADME, organism-based; details: in vivo
[7] = AUC(0 to infinity) in Sprague-Dawley rat at 10 mg/kg, po measured upto 24 hrs by LC-MS/MS analysis; format: ADME, organism-based; set-up: dose 10 mg/kg, time < 24 hrs, route po; details: in vivo
[8] = Half life in mouse at 1 mg/kg, iv measured upto 24 hrs by LC-MS/MS analysis; format: ADME, organism-based; details: in vivo
[9] = Clearance in Sprague-Dawley rat at 10 mg/kg, po measured upto 24 hrs by LC-MS/MS analysis; format: ADME, organism-based; details: in vivo
[10] = Toxicity in ICR mouse assessed as liver damage at 50 to 200 mg/kg, po administered every other day for 14 days; format: organism-based; details: in vivo, 336 h, dose 50-200 mg/kg, time 14 day
[11] = Mean residence time (0 to infinity) in mouse at 10 mg/kg, po measured upto 24 hrs by LC-MS/MS analysis; format: ADME, organism-based; details: in vivo
[12] = Clearance in mouse at 1 mg/kg, iv measured upto 24 hrs by LC-MS/MS analysis; format: ADME, organism-based; details: in vivo
[13] = molecular target: Hypoxia-inducible factor 1-alpha (Homo sapiens) (UniProt Q16665); assay: Induction of HIF-1alpha stabilization in human Hep3B cells at 20 to 50 uM by Western blotting analysis; format: cell-based; details: dose 20-50 µM
[14] = Tmax in Sprague-Dawley rat at 10 mg/kg, po measured upto 24 hrs by LC-MS/MS analysis; format: ADME, organism-based; details: in vivo
[15] = Apparent volume of distribution in Sprague-Dawley rat at 1 mg/kg, iv measured upto 24 hrs by LC-MS/MS analysis; format: ADME, organism-based; details: in vivo, read-out: Vz
[16] = AUC(0 to t) in mouse at 10 mg/kg, po measured upto 24 hrs by LC-MS/MS analysis; format: ADME, organism-based; set-up: dose 10 mg/kg, time < 24 hrs, route po; details: in vivo
[17] = Cmax in mouse at 10 mg/kg, po measured upto 24 hrs by LC-MS/MS analysis; format: ADME, organism-based; set-up: time < 24 hrs, dose 10 mg/kg, route po; details: in vivo
[18] = Oral bioavailability in mouse at 10 mg/kg measured upto 24 hrs by LC-MS/MS analysis; format: ADME, organism-based; details: in vivo
[19] = Toxicity in ICR mouse assessed as kidney damage at 50 to 200 mg/kg, po administered every other day for 14 days; format: organism-based; details: in vivo, 336 h, dose 50-200 mg/kg, time 14 day
[20] = Cmax in Sprague-Dawley rat at 10 mg/kg, po measured upto 24 hrs by LC-MS/MS analysis; format: ADME, organism-based; set-up: time < 24 hrs, dose 10 mg/kg, route po; details: in vivo
[21] = Toxicity in ICR mouse assessed as change in heart to body weight ratio at 50 to 200 mg/kg, po administered every other day for 14 days; format: organism-based; details: in vivo, 336 h, dose 50-200 mg/kg, time 14 day
[22] = Apparent volume of distribution in mouse at 10 mg/kg, po measured upto 24 hrs by LC-MS/MS analysis; format: ADME, organism-based; details: in vivo
[23] = Half life in mouse at 10 mg/kg, po measured upto 24 hrs by LC-MS/MS analysis; format: ADME, organism-based; details: in vivo
[24] = Toxicity in ICR mouse assessed as spleen damage at 50 to 200 mg/kg, po administered every other day for 14 days; format: organism-based; details: in vivo, 336 h, dose 50-200 mg/kg, time 14 day
[25] = Oral bioavailability in Sprague-Dawley rat at 10 mg/kg measured upto 24 hrs by LC-MS/MS analysis; format: ADME, organism-based; details: in vivo
[26] = AUC(0 to infinity) in Sprague-Dawley rat at 1 mg/kg, iv measured upto 24 hrs by LC-MS/MS analysis; format: ADME, organism-based; set-up: time < 24 hrs, dose 1 mg/kg, route iv; details: in vivo
[27] = Mean residence time (0 to infinity) in Sprague-Dawley rat at 10 mg/kg, po measured upto 24 hrs by LC-MS/MS analysis; format: ADME, organism-based; details: in vivo
[28] = Clearance in mouse at 10 mg/kg, po measured upto 24 hrs by LC-MS/MS analysis; format: ADME, organism-based; details: in vivo
[29] = Toxicity in ICR mouse assessed as change in kidney to body weight ratio at 50 to 200 mg/kg, po administered every other day for 14 days; format: organism-based; details: in vivo, 336 h, dose 50-200 mg/kg, time 14 day
[30] = Mean residence time (0 to infinity) in mouse at 1 mg/kg, iv measured upto 24 hrs by LC-MS/MS analysis; format: ADME, organism-based; details: in vivo
[31] = Toxicity in ICR mouse assessed as effect on food intake at 50 to 200 mg/kg, po administered every other day for 14 days; format: organism-based; details: in vivo, 336 h, dose 50-200 mg/kg, time 14 day
[32] = AUC(0 to t) in Sprague-Dawley rat at 10 mg/kg, po measured upto 24 hrs by LC-MS/MS analysis; format: ADME, organism-based; set-up: time < 24 hrs, dose 10 mg/kg, route po; details: in vivo
[33] = AUC(0 to infinity) in mouse at 10 mg/kg, po measured upto 24 hrs by LC-MS/MS analysis; format: ADME, organism-based; set-up: dose 10 mg/kg, time < 24 hrs, route po; details: in vivo
[34] = AUC(0 to infinity) in mouse at 1 mg/kg, iv measured upto 24 hrs by LC-MS/MS analysis; format: ADME, organism-based; set-up: time < 24 hrs, dose 1 mg/kg, route iv; details: in vivo
[35] = Apparent volume of distribution in Sprague-Dawley rat at 10 mg/kg, po measured upto 24 hrs by LC-MS/MS analysis; format: ADME, organism-based; details: in vivo
[36] = Mean residence time (0 to infinity) in Sprague-Dawley rat at 1 mg/kg, iv measured upto 24 hrs by LC-MS/MS analysis; format: ADME, organism-based; details: in vivo
[37] = Toxicity in ICR mouse assessed as change in lungs to body weight ratio at 50 to 200 mg/kg, po administered every other day for 14 days; format: organism-based; details: in vivo, 336 h, dose 50-200 mg/kg, time 14 day
Hep 3B2 [38] = assay: Effect on VEGFA gene expression in human Hep3B cells at 5 to 20 uM incubated for 12 hrs by RT-qPCR analysis; format: functional, cell-based; details: dose 5-20 µM
[39] = Toxicity in ICR mouse assessed as lung damage at 50 to 200 mg/kg, po administered every other day for 14 days; format: organism-based; details: in vivo, 336 h, dose 50-200 mg/kg, time 14 day
Hep 3B2 [40] = assay: Cytotoxicity against human Hep3B cells incubated for 48 hrs by CCK-8 assay; format: toxicity, cell-based; details: hep 3b2, 48 h
[41] = Hepatotoxicity in ICR mouse at 50 to 200 mg/kg, po administered every other day for 14 days; format: toxicity, organism-based; details: in vivo, 336 h, dose 50-200 mg/kg, time 14 day
[42] = Toxicity in ICR mouse assessed as animal death at 800 mg/kg, po; format: organism-based; details: in vivo
[43] = Toxicity in ICR mouse assessed as change in liver to body weight ratio at 50 to 200 mg/kg, po administered every other day for 14 days; format: organism-based; details: in vivo, 336 h, dose 50-200 mg/kg, time 14 day
[44] = Nephrotoxicity in ICR mouse at 50 to 200 mg/kg, po administered every other day for 14 days; format: toxicity, organism-based; details: in vivo, 336 h, dose 50-200 mg/kg, time 14 day
[45] = Tmax in mouse at 10 mg/kg, po measured upto 24 hrs by LC-MS/MS analysis; format: ADME, organism-based; details: in vivo
[46] = Apparent volume of distribution in mouse at 1 mg/kg, iv measured upto 24 hrs by LC-MS/MS analysis; format: ADME, organism-based; details: in vivo, read-out: Vz
[47] = Toxicity in ICR mouse assessed as behavioral abnormalities at 50 to 200 mg/kg, po administered every other day for 14 days; format: organism-based; details: in vivo, 336 h, dose 50-200 mg/kg, time 14 day
[48] = Toxicity in ICR mouse assessed as effect on body weight at 50 to 200 mg/kg, po administered every other day for 14 days; format: organism-based; details: in vivo, 336 h, dose 50-200 mg/kg, time 14 day
[49] = AUC(0 to t) in mouse at 1 mg/kg, iv measured upto 24 hrs by LC-MS/MS analysis; format: ADME, organism-based; set-up: time < 24 hrs, dose 1 mg/kg, route iv; details: in vivo
[50] = Half life in Sprague-Dawley rat at 1 mg/kg, iv measured upto 24 hrs by LC-MS/MS analysis; format: ADME, organism-based; details: in vivo
[51] = Upregulation of EPO mRNA level in human Hep3B cells assessed as fold increase at 20 uM incubated for 12 hrs by RT-qPCR analysis; format: functional, Hep 3B2
Hep 3B2 [52] = assay: Upregulation of EPO mRNA level in human Hep3B cells incubated for 12 hrs by RT-qPCR analysis; format: functional, cell-based; details: dose 5-20 µM
Erythrocyte = assay: Upregulation of reticulocytes in C57BL/6J mouse assessed as increase in RBC at 10 to 50 mg/kg, po administered once daily for 3 days; format: functional, organism-based; details: dose 10-50 mg/kg, time 3.0 day

Chain of Egl nine homolog 1 (Q9GZT9 whole entry, the tested form may be a part): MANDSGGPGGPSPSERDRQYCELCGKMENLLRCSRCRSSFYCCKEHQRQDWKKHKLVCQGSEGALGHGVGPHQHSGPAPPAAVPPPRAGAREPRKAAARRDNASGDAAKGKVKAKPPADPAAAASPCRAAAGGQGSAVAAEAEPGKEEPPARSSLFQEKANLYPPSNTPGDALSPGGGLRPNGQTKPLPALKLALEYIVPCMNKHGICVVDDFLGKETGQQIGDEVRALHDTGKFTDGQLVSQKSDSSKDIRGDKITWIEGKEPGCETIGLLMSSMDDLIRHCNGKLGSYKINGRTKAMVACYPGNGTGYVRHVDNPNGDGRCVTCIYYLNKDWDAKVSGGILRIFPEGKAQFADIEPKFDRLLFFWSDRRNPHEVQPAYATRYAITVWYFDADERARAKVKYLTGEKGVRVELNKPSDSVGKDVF
Chain of Hypoxia-inducible factor 1-alpha (Homo sapiens) (Q16665 whole entry, looked up): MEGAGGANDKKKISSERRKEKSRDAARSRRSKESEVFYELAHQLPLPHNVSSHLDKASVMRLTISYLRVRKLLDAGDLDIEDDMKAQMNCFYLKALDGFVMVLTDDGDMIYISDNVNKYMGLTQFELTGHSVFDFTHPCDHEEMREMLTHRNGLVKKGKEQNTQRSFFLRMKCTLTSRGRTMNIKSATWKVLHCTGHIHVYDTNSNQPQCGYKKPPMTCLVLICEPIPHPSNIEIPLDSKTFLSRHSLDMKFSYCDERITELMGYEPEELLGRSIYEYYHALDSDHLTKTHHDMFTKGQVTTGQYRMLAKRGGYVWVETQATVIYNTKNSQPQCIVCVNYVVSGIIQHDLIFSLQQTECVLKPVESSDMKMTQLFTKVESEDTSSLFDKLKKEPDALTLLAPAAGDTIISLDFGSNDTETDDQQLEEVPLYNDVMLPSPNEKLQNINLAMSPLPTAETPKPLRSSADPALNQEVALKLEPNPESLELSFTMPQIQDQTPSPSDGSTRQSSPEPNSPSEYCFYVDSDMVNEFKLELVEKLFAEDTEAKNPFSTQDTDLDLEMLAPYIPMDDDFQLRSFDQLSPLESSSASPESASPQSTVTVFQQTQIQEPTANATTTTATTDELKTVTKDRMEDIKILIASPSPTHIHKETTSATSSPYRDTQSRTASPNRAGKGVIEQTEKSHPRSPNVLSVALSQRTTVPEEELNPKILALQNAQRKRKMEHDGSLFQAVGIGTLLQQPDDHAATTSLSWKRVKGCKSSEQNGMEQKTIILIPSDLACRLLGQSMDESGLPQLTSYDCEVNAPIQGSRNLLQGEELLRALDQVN
Chain of Endothelial PAS domain-containing protein 1 (Homo sapiens) (Q99814 whole entry, the tested form may be a part): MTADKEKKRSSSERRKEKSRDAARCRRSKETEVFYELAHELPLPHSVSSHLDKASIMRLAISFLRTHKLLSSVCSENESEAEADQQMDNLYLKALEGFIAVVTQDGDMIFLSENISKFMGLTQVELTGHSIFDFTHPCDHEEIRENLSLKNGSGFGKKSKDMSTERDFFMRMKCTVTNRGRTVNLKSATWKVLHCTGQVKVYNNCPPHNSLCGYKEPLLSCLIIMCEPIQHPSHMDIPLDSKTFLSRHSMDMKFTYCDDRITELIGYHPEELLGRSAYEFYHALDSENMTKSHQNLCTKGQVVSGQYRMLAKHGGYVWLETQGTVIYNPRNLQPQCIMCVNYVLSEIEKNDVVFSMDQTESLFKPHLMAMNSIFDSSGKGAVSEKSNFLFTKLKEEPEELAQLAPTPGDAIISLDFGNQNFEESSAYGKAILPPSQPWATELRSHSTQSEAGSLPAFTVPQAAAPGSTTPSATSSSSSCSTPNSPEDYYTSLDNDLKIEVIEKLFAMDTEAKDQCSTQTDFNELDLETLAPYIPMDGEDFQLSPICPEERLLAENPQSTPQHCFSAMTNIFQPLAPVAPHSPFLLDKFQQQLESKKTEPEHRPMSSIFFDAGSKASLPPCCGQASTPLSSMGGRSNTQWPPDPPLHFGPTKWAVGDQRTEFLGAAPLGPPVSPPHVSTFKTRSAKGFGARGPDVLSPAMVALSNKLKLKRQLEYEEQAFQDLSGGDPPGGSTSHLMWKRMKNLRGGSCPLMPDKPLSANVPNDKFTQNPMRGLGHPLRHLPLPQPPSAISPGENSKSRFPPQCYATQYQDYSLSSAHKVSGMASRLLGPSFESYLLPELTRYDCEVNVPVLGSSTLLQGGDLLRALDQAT

O=C(O)CNC(=O)c1ncc(C2CCN(C(=O)CNc3ccc(C(F)(F)F)cc3)CC2)cc1O
IC50 (Egl nine homolog 1): 43.4 nM | microsomal CLint at 1 µM [1]: 5.6 µL/min/mg

O=C(O)CNC(=O)c1ncc(C2CCN(C(=O)c3ccc(C(F)(F)F)cc3)CC2)cc1O
Activity (Mus musculus): Active | IC50 (Egl nine homolog 1): 44.3 nM | microsomal CLint at 1 µM [1]: 3.7 µL/min/mg

O=C(O)CNC(=O)c1ncc(C2CCN(C(=O)CNc3ccc(Cl)c(Cl)c3)CC2)cc1O
Activity (Mus musculus): Active | IC50 (Egl nine homolog 1): 19.6 nM

O=C(O)CNC(=O)c1ncc(C2CCN(C(=O)CNc3ccc(Cl)cc3)CC2)cc1O
AUC(0-t) at 24 h [2]: 2060 ng·h/mL | Activity [3]: Active | Activity [4]: Non-Toxic | Activity [5]: Non-Toxic | clearance [6]: 8.05 mL/min/kg | AUC(0-inf) [7]: 7140 ng·h/mL | Activity (Mus musculus): Active | half-life [8]: 19.8 min | CL/F [9]: 23.6 mL/min/kg | Activity [10]: Non-Toxic | MRT inf [11]: 1.67 h | IC50 (Egl nine homolog 1): 22.5 nM | clearance [12]: 12 mL/min/kg | Activity [13]: Active | Tmax [14]: 4.8 min | Vd [15]: 2.64 L/kg | AUC(0-t) at 24 h [16]: 4480 ng·h/mL | Cmax [17]: 3040 ng/mL | bioavailability [18]: 35.3% | Activity [19]: Non-Toxic | Cmax [20]: 26100 ng/mL | microsomal CLint at 1 µM [1]: 3.8 µL/min/mg | Activity [21]: Non-Toxic | Vz [22]: 4532 mL/kg | half-life [23]: 70.2 min | Activity [24]: Non-Toxic | bioavailability [25]: 33.9% | AUC(0-inf) [26]: 2110 ng·h/mL | MRT inf [27]: 33.6 min | CL/F [28]: 37.4 mL/min/kg | Activity [29]: Non-Toxic | MRT inf [30]: 31.8 min | Activity [31]: Non-Toxic | AUC(0-t) at 24 h [32]: 7120 ng·h/mL | AUC(0-inf) [33]: 4490 ng·h/mL | AUC(0-inf) [34]: 1390 ng·h/mL | Vz [35]: 4692 mL/kg | MRT inf [36]: 1.54 h | Activity [37]: Non-Toxic | Activity (Hep 3B2 [38]): inactive | Activity [39]: Non-Toxic | Activity (Hep 3B2 [40]): Non-Toxic | Activity [41]: Non-Toxic | Activity [42]: Non-Toxic | Activity [43]: Non-Toxic | Activity [44]: Non-Toxic | Tmax [45]: 30 min | Vd [46]: 0.345 L/kg | Activity [47]: Non-Toxic | Activity [48]: Non-Toxic | AUC(0-t) at 24 h [49]: 1380 ng·h/mL | half-life [50]: 223 min | fold change (FC) [51]: 11 | Activity (Hep 3B2 [52]): Dose-Dependent Effect | Activity (Erythrocyte): Dose-Dependent Effect

— ChEMBL document CHEMBL5331121, “Preferred Conformation-Guided Discovery of Potent and Orally Active HIF Prolyl Hydroxylase 2 Inhibitors for the Treatment of Anemia” (J Med Chem, 2023)
